{"source": "patent US10813931B2", "about": "“Methods and compositions relating to the treatment of cancer” (THE BRIGHAM AND WOMEN'S HOSPITAL, INC., priority 2013, dated 2020)", "key": {"[1]": {"test_system": "4T-1 mouse mammary carcinoma", "assay": "4T-1 tumor growth in Balb/C mice", "format": "in vivo", "procedure": "4-6 week old Balb/C mice (Charles River, Cambridge Mass.) were inoculated with 10^6 4 T-1 mouse mammary carcinoma cells in the left flank (Charles River, Cambridge Mass.). Mice identified with tumors were treated with docetaxel (DTX) or vehicle twice at 72 hour intervals at 10 mg/kg i.v. or 15 mg/kg i.p. and subsequently treated with dasatinib i.p. or nanoparticles i.v. 72 hours following the final DTX dose. Tumors were harvested at indicated time points and evaluated for protein phosphorylation and expression. Experimental detail provided in supplemental data.\n1 million 4T-1 mouse mammary carcinoma cells suspended in 100 µL PBS were injected per left flank of 5-6 week old Balb/C (Charles River, Wilmington Mass.). DTX was dissolved in pure Ethanol at a concentration of 50 mg/ml mixed 1:1 with Polysorbate 80 (Tween 80) and brought to a final working concentration with 5% glucose in PBS. Once Tumors became palpable (˜100 mm^3), DTX or vehicle treatments were administered at 100 μL volumes. Dasatinib was dissolved in DMSO to working concentration and delivered as 50 μL injections on indicated days, 50 µL DMSO used as a control in these studies. Tumor volumes were measured by a third party unaware of treatment conditions using digital calipers (Starlett, Athol, Mass.), volumes were assessed by the following formula: (Width×Width×length)/2 and expressed as relative volume increase from day 1. Tumor homogenate was prepared by homogenization of equal weight tissue sections incubated in 3×RIPA buffer containing 2× protease/phosphatase inhibitor cocktail (Thermo Fisher, Waltham, Mass.)."}, "[2]": {"test_system": "MDA-MB-468 (468) cell line", "assay": "CD44/CD24 surface expression by FACS in 468 cells", "format": "cell-based, human", "procedure": "MDA-MB-231, MDA-MB-468 were purchased from ATCC. For acute treatments, cells were plated at a density of 0.5-1×10^5 cells/ml and allowed to adhere for 24-48 hr. when cells reached ˜70% confluency they were treated with antitubulins at indicated concentrations for 4-24 hours and utilized for subsequent assays. To generate chemotherapy tolerant subset, cells were treated with indicated concentrations of chemotherapy (48). Following washes with PBS, adherent cells were trypsinized and re-plated at a density of 1.5-2×10^5 cells/ml and cultured in serum-containing medium. […]\nCells were cultured as indicated and fixed with 4% paraformaldehyde in PBS for 30 min at RT and blocked in 10% goat serum (v/v). Following PBS washes, cells were incubated with indicated antibodies for 60 minutes at room temperature or overnight at 4 C and analyzed by FACS (Accuri cyomteters Inc. Ann Arbor, Mich.). Cell cycle analyzed in propidium iodide solution following incubation in 70% Ethanol overnight at 4 C and following manufacturer protocol (Genscript USA Inc. Piscataway, N.J.). AnnexinV/PI was analyzed FACS following manufacturer protocol (BD, Ann Arbor Mich.). All FACS results were analyzed by FlowJo™ software following a rigorous doublet discrimination based on FSC:A vs. width as well as FSC:A vs. height (Tree Star Inc., Ashland Oreg.). […]"}, "[3]": {"test_system": "taxane-refractory breast cancer explant", "assay": "Human refractory breast cancer explant, immunohistochemistry", "details": "ex vivo 72 h, taxane-containing regimen or Doxil, N=7", "procedure": "Anonymous human breast cancer tissues (N=7) from patients refractory to taxane-containing regimens were incubated ex vivo in autologous patient serum in the presence or absence of taxane-containing or liposomal doxorubicin (Doxil) regimens for 72 hours. Following fixation in formalin and paraffin embedding, tissue was processed by H&E to identify tumor cells and immunohistochemistry (IHC) was performed to identify protein expression. IHC scores were determined in a third party blinded fashion by multiplying the intensity of staining at the cellular level with the percentage of cells stained per field of view.\nFresh tumor tissues were collected from breast cancer patients immediately after surgical resection at HCG cancer hospital, Bangalore, India. The tumor samples were transported to the laboratory at 4° C., in appropriate transport buffer within 60 minutes post-resection, for ex-vivo studies and molecular and pathological evaluation. […] After 48 hrs of treatment, tumor cell viability was measured and release of soluble cleaved caspase-3 and caspase-8 were determined.\nHuman Tumor tissues were fixed in Phos stop (Roche) containing 4% buffered formalin and embedded in paraffin. […] Immunoreactivity was scored by intensity of staining (0, no staining, 1 weak; 2 moderate; 3 strong) and percentage of positive cells. By multiplying both values, a final score was calculated. […]"}}}
{"smiles": "CC(=O)O[C@@]12CO[C@@H]1C[C@H](O)[C@@]1(C)C(=O)[C@H](O)C3=C(C)[C@@H](OC(=O)[C@H](O)[C@@H](NC(=O)OC(C)(C)C)c4ccccc4)C[C@@](O)([C@@H](OC(=O)c4ccccc4)[C@H]21)C3(C)C", "note": "[DTX, docetaxel]", "values": [{"measurement": "tumor re-emergence after treatment", "setting": "[1]; DTX days 2 and 5, day 19", "value": "re-emerged robustly by day 19"}, {"measurement": "tumor growth (relative tumor volume)", "setting": "[1]; DTX days 2 and 5 at 10 mg/kg i.v. and 15 mg/kg i.p., vs vehicle", "value": "inhibited tumor growth"}, {"measurement": "CD44/CD24 signature", "setting": "[2]; 10 nM docetaxel, 24 h", "value": "induced a CD44^HI, CD24^+/HI signature"}, {"measurement": "CD44 surface expression", "setting": "[2]; 24 hour incubation, 10 nM DTX", "value": "induction of CD44 was observed"}, {"measurement": "CD44 expression (IHC)", "setting": "[3]", "value": "induced the over-expression of CD44"}]}
